According to ChEMBL document CHEMBL1147597, “Synthesis and biological evaluations of novel benzimidazoles as potential antibacterial agents” (Bioorg Med Chem Lett, 2004):
≈ marks a conversion by molar mass, not a printed value.

How the values were obtained:
[1] = test system: Staphylococcus aureus; assay: Minimal inhibitory concentration against gram positive Staphylococcus aureus 13709 strain (Range is 3-6 uM); type: functional
[2] = test system: Bacteria; assay: Inhibitory activity against bacteria in the transcription/translation assay; type: functional, organism-based
[3] = test system: Pseudomonas aeruginosa; assay: Minimal inhibitory concentration against gram negative Pseudomonas aeruginosa 25416 strain (Range is 12-25 uM); type: functional
[4] = test system: Enterococcus hirae; assay: Minimal inhibitory concentration against gram positive Enterococcus hirae 29212 strain (Range is 1-3 uM); type: functional
[5] = test system: Staphylococcus aureus; assay: Minimal inhibitory concentration against Staphylococcus aureus (Range is 3-6 uM); type: functional
[6] = test system: Escherichia coli; assay: Minimal inhibitory concentration against gram negative Escherichia coli 25922 strain (Range is 6-12 uM); type: functional; conditions: ATCC25922
[7] = test system: Klebsiella pneumoniae; assay: Minimal inhibitory concentration against gram negative Klebsiella pneumoniae 13383 strain (Range is 6-12 uM); type: functional
[8] = test system: Escherichia coli; assay: Minimal inhibitory concentration against Escherichia coli (Range is 6-12 uM); type: functional
[9] = test system: Streptococcus pneumoniae; assay: Minimal inhibitory concentration against gram positive Streptococcus pneumoniae 6303 strain (Range is 6-12 uM); type: functional
[10] = test system: Streptococcus pyogenes; assay: Minimal inhibitory concentration against gram positive Streptococcus pyogenes 49399 strain (Range is 3-6 uM); type: functional
[11] = test system: Pseudomonas aeruginosa; assay: Minimal inhibitory concentration against gram negative Pseudomonas aeruginosa 25416 strain (Range is 6-12 uM); type: functional
[12] = test system: Escherichia coli; assay: Minimal inhibitory concentration against gram negative Escherichia coli 25922 strain (Range is 12-26 uM); type: functional; conditions: ATCC25922
[13] = test system: Streptococcus pyogenes; assay: Minimal inhibitory concentration against gram positive Streptococcus pyogenes 49399 strain (Range is 25-50 uM); type: functional
[14] = test system: Escherichia coli; assay: Minimal inhibitory concentration against Escherichia coli (Range is 12-25 uM); type: functional
[15] = test system: Enterococcus hirae; assay: Minimal inhibitory concentration against gram positive Enterococcus hirae 29212 strain (Range is 0.75-1.5 uM); type: functional
[16] = test system: Staphylococcus aureus; assay: Minimal inhibitory concentration against Staphylococcus aureus (Range is 12-25 uM); type: functional
[17] = test system: Proteus vulgaris; assay: Minimal inhibitory concentration against gram negative Proteus vulgaris 8427 strain (Range is 25-50 uM); type: functional
[18] = test system: Staphylococcus aureus; assay: Minimal inhibitory concentration against gram positive Staphylococcus aureus 13709 strain (Range is 3-7 uM); type: functional
[19] = test system: Klebsiella pneumoniae; assay: Minimal inhibitory concentration against gram negative Klebsiella pneumoniae 13383 strain (Range is 25-50 uM); type: functional
[20] = test system: Pseudomonas aeruginosa; assay: Minimal inhibitory concentration against gram negative Pseudomonas aeruginosa 25416 strain (Range is 25-50 uM); type: functional
[21] = test system: Streptococcus pyogenes; assay: Minimal inhibitory concentration against gram positive Streptococcus pyogenes 49399 strain (Range is 6-12 uM); type: functional
[22] = test system: Escherichia coli; assay: Minimal inhibitory concentration against gram negative Escherichia coli 25922 strain (Range is 12-25 uM); type: functional; conditions: ATCC25922
[23] = test system: Staphylococcus aureus; assay: Minimal inhibitory concentration against Staphylococcus aureus (Range is 6-12 uM); type: functional
[24] = test system: Streptococcus pneumoniae; assay: Minimal inhibitory concentration against gram positive Streptococcus pneumoniae 6303 strain (Range is 12-25 uM); type: functional
[25] = test system: Enterococcus hirae; assay: Minimal inhibitory concentration against gram positive Enterococcus hirae 29212 strain (Range is 3-6 uM); type: functional
[26] = test system: Staphylococcus aureus; assay: Minimal inhibitory concentration against gram positive Staphylococcus aureus 13709 strain (Range is 6-12 uM); type: functional
[27] = test system: Escherichia coli; assay: Minimal inhibitory concentration against Escherichia coli; type: functional
[28] = test system: Escherichia coli; assay: Minimal inhibitory concentration against gram negative Escherichia coli 25922 strain; type: functional; conditions: ATCC25922
[29] = test system: Klebsiella pneumoniae; assay: Minimal inhibitory concentration against gram negative Klebsiella pneumoniae 13383 strain (Range is 50-100 uM); type: functional
[30] = test system: Enterococcus hirae; assay: Minimal inhibitory concentration against gram positive Enterococcus hirae 29212 strain (Range is 25-50 uM); type: functional
[31] = test system: Pseudomonas aeruginosa; assay: Minimal inhibitory concentration against gram negative Pseudomonas aeruginosa 25416 strain; type: functional
[32] = test system: Proteus vulgaris; assay: Minimal inhibitory concentration against gram negative Proteus vulgaris 8427 strain; type: functional

**Q.** Which results are given for Clc1cc2nc(C3CCNCC3)n(Cc3ccc(Cn4c(C5CCNCC5)nc5cc(Cl)c(Cl)cc54)cc3)c2cc1Cl?
**A.** MIC [1]: 6 µM (≈ 3.85 µg/mL); IC50 [2]: > 100 µM; MIC [3]: 25 µM (≈ 16.1 µg/mL); MIC [4]: 3 µM (≈ 1.93 µg/mL); MIC [5]: 6 µM (≈ 3.85 µg/mL); MIC [6]: 12 µM (≈ 7.71 µg/mL); MIC [7]: 12 µM (≈ 7.71 µg/mL); MIC [8]: 12 µM (≈ 7.71 µg/mL); MIC [9]: 12 µM (≈ 7.71 µg/mL); MIC [10]: 6 µM (≈ 3.85 µg/mL)

**Q.** With Clc1cc2nc(C3CCNCC3)n(CCCCCn3c(C4CCNCC4)nc4cc(Cl)c(Cl)cc43)c2cc1Cl as the compound, how does the IC50 [2] read?
**A.** Its IC50 is 35 µM.

**Q.** And the MIC [11]?
**A.** Its MIC is 12 µM (≈ 7.3 µg/mL).

**Q.** And the MIC [12]?
**A.** The MIC was 26 µM (≈ 15.8 µg/mL).

**Q.** What about the MIC [13] of the same compound?
**A.** Its MIC is 50 µM (≈ 30.4 µg/mL).

**Q.** And the MIC [14]?
**A.** The MIC was 25 µM (≈ 15.2 µg/mL).

**Q.** And the MIC [15]?
**A.** Its MIC is 1.5 µM (≈ 0.913 µg/mL).

**Q.** What about the MIC [16] of the same compound?
**A.** The MIC was 25 µM (≈ 15.2 µg/mL).

**Q.** What about the MIC [17] of the same compound?
**A.** Its MIC is 50 µM (≈ 30.4 µg/mL).

**Q.** What about the MIC [9] of the same compound?
**A.** The MIC was 12 µM (≈ 7.3 µg/mL).

**Q.** What about the MIC [18] of the same compound?
**A.** The MIC was 7 µM (≈ 4.26 µg/mL).

**Q.** What about the MIC [19] of the same compound?
**A.** The MIC was 50 µM (≈ 30.4 µg/mL).

**Q.** How did the IC50 [2] turn out when O=C(Cn1c(C2CCNCC2)nc2cc(Cl)c(Cl)cc21)NNC(=O)Nc1ccc2ccccc2c1 was run?
**A.** The IC50 was > 100 µM.

**Q.** What about the MIC [20] of the same compound?
**A.** Its MIC is 50 µM (≈ 25.6 µg/mL).

**Q.** What about the MIC [21] of the same compound?
**A.** The MIC was 12 µM (≈ 6.14 µg/mL).

**Q.** What about the MIC [22] of the same compound?
**A.** Its MIC is 25 µM (≈ 12.8 µg/mL).

**Q.** What about the MIC [23] of the same compound?
**A.** Its MIC is 12 µM (≈ 6.14 µg/mL).

**Q.** What about the MIC [7] of the same compound?
**A.** Its MIC is 12 µM (≈ 6.14 µg/mL).

**Q.** And the MIC [24]?
**A.** The MIC was 25 µM (≈ 12.8 µg/mL).

**Q.** And the MIC [25]?
**A.** Its MIC is 6 µM (≈ 3.07 µg/mL).

**Q.** And the MIC [14]?
**A.** The MIC was 25 µM (≈ 12.8 µg/mL).

**Q.** And the MIC [26]?
**A.** Its MIC is 12 µM (≈ 6.14 µg/mL).

**Q.** And the MIC [17]?
**A.** The MIC was 50 µM (≈ 25.6 µg/mL).

**Q.** Which results are given for O=C1C=CC(=O)N1CCCCCn1c(C2CCNCC2)nc2cc(Cl)c(Cl)cc21?
**A.** IC50 [2]: > 100 µM; MIC [27]: > 100 µM; MIC [28]: > 100 µM; MIC [13]: 50 µM (≈ 21.8 µg/mL); MIC [23]: 12 µM (≈ 5.22 µg/mL); MIC [29]: 100 µM (≈ 43.5 µg/mL); MIC [30]: 50 µM (≈ 21.8 µg/mL); MIC [31]: > 100 µM; MIC [26]: 12 µM (≈ 5.22 µg/mL); MIC [32]: > 100 µM; MIC [9]: 12 µM (≈ 5.22 µg/mL)
